The text below walks through data of patent publication US9826759B2, “Avenanthramide-enriched oat product” (THE QUAKER OATS COMPANY, priority 2014, dated 2017).

The structures appear in SMILES notation.

Assay [1] is described as follows: Oxygen Radical Absorbance Capacity (ORAC) assay, antioxidant activity. Type of assay: biochemical. Conditions: individual avenanthramides. As for the experimental part: To test the effect of varying avenanthramide ratios on antioxidant activity and inflammation in vitro, the inventors created an avenanthramide ingredient from pure avenanthramides which had similar ratios of avenanthramides 2c:2p:2f as was present in each of the three different oat fractions: hulls, flour, and trichomes. Thereafter, antioxidant activity was measured using the ORAC assay and anti-inflammatory effect was measured using an NF-κB inhibitory assay.
The first avenanthramide ingredient was created from 2c:2p:2f having a ratio of about 1:1:1, which corresponded to the concentration present in oat hulls. The second avenanthramide ingredient had avenanthramides 2c:2p:2f having a ratio of about 1:1:2, which corresponded to the concentration present in oat flour. Finally, the last avenanthramide ingredient tested had 2c:2p:2f in a ratio of about 1:2:2, which corresponded to the concentration present in oat trichomes. An ORAC assay was used to measure the antioxidant activity of each of these avenanthramide ingredients and the results are presented in Table 1.

The conditions of assay [2]: Peterson et al., 2001; cited from earlier work.

For the molecule `COc1cc(/C=C/C(=O)Nc2ccc(O)cc2C(=O)O)ccc1O` [Avenanthramide 2f, avenanthramide 2f], the ORAC in assay [1] is listed as 21812.67 B TE/g. Take `O=C(/C=C/c1ccc(O)c(O)c1)Nc1ccc(O)cc1C(=O)O` [Avenanthramide 2c, avenanthramide 2c]: in assay [1], the ORAC was determined as 33741.00 A* TE/g. Besides, in assay [2], the “antioxidant activity in vitro” value is listed as “highest antioxidant activity”.

With `O=C(/C=C/c1ccc(O)cc1)Nc1ccc(O)cc1C(=O)O` [Avenanthramide 2p, avenanthramide 2p], the ORAC in assay [1] was found to be 18504.33 B TE/g.
